The target in the experiment is DNA-PK (Homo sapiens, UniProt P78527). Put plainly: DNA-PK Inhibition Assay (standard radiometric kinase assay, 33P-ATP, peptide substrate). Format: biochemical. The conditions noted are these: radiometric assay, approximately 6 nM DNA-PK, 100 μM ATP, 45 min; fit to competitive tight-binding inhibition; read-out: Ki for the inhibition of DNA-PK. On the procedure:
Compounds were screened for their ability to inhibit DNA-PK kinase using a standard radiometric assay. Briefly, in this kinase assay the transfer of the terminal ^33P-phosphate in ^33P-ATP to a peptide substrate is interrogated. The assay was carried out in 384-well plates to a final volume of 50 μL per well containing approximately 6 nM DNA-PK, 50 mM HEPES (pH 7.5), 10 mM MgCl2, 25 mM NaCl, 0.01% BSA, 1 mM DTT, 10 μg/mL sheared double-stranded DNA (obtained from Sigma), 0.8 mg/mL DNA-PK peptide (Glu-Pro-Pro-Leu-Ser-Gln-Glu-Ala-Phe-Ala-Asp-Leu-Trp-Lys-Lys-Lys, obtained from American Peptide), and 100 μM ATP. Accordingly, compounds of the invention were dissolved in DMSO to make 10 mM initial stock solutions. Serial dilutions in DMSO were then made to obtain the final solutions for the assay. A 0.75 μL aliquot of DMSO or inhibitor in DMSO was added to each well, followed by the addition of ATP substrate solution containing ^33P-ATP (obtained from Perkin Elmer). The reaction was started by the addition of DNA-PK, peptide and ds-DNA. After 45 min, the reaction was quenched with 25 μL of 5% phosphoric acid. The reaction mixture was transferred to MultiScreen HTS 384-well PH plates (obtained from Millipore), allowed to bind for one hour, and washed three times with 1% phosphoric acid. Following the addition of 50 μL of Ultima Gold™ high efficiency scintillant (obtained from Perkin Elmer), the samples were counted in a Packard TopCount NXT Microplate Scintillation and Luminescence Counter (Packard BioScience). The Ki values were calculated using Microsoft Excel Solver macros to fit the data to the kinetic model for competitive tight-binding inhibition.

SMILES strings stand for the structures.

These results are taken from US12251387B2, “Substituted quinoxalines and benzo[c][1,2,5]oxadiazoles as DNA-PK inhibitors” (Vertex Pharmaceuticals Incorporated, priority 2013, dated 2025).

As for `Cc1cc(N[C@H]2CC[C@@H](Oc3cc(N4CCOCC4)cc4nccnc34)CC2)n[nH]c1=O` [Compound 599], the Ki (usually a dissociation constant, usually derived from enzyme kinetics or from competition with a known ligand) is less than 100 nM.

`Cc1cnc(N[C@H]2CC[C@@H](Oc3cc(N4CCOCC4)cc4nccnc34)CC2)cn1` [Compound 282]: the Ki is less than 100 nM.

`CN1Cc2c(N[C@H]3CC[C@@H](Oc4cc(N5CCOCC5)cc5nccnc45)CC3)cccc2C1=O` [Compound 340]: the Ki was less than 100 nM.

As for `CN(C)CCOc1ccnc(N[C@H]2CC[C@@H](Oc3cc(N4CCOCC4)cc4nccnc34)CC2)n1` [Compound 559], the Ki is less than 100 nM.

As for `CN1CCN(c2ccnc(N[C@H]3CC[C@@H](Oc4cc(N5CCOCC5)cc5nccnc45)CC3)n2)CC1` [Compound 547], the Ki was less than 100 nM.

Regarding `OC1(c2cnc(N[C@H]3CC[C@@H](Oc4cc(N5CCOCC5)cc5nccnc45)CC3)nc2)COC1` [Compound 610], the Ki is less than 100 nM.

As for `c1cnc2c(O[C@H]3C[C@@H](Nc4ncnc5ccoc45)C3)cc(N3CCOCC3)cc2n1` [Compound 356], the Ki is less than 100 nM.

On to `COCCNc1ncnc(N[C@H]2CC[C@@H](Oc3cc(N4CCOCC4)cc4nccnc34)CC2)c1F` [Compound 382], for which the Ki is less than 100 nM.

As for `FC(F)(F)c1cccc(N[C@H]2CC[C@@H](Oc3cc(N4CCOCC4)cc4nccnc34)CC2)n1` [Compound 587], the inhibitory constant (Ki) was less than 100 nM.

In the case of `Cc1cc(N[C@H]2CC[C@@H](Oc3cc(N4CCOCC4)cc4nccnc34)CC2)ccn1` [Compound 285], the Ki is less than 100 nM.

With `c1cnc2c(O[C@H]3CC[C@@H](Nc4ccc5c(n4)OCCO5)CC3)cc(N3CCOCC3)cc2n1` [Compound 631], the Ki is less than 100 nM.

On to `CN(C)CCOc1cnc(N[C@H]2CC[C@@H](Oc3cc(N4CCOCC4)cc4nccnc34)CC2)nc1` [Compound 624], for which the Ki is less than 100 nM.

On to `OCc1cc(N[C@H]2CC[C@@H](Oc3cc(N4CCOCC4)cc4nccnc34)CC2)ncn1` [Compound 424], for which the inhibition constant Ki was less than 100 nM.

Take `c1cnc2c(O[C@H]3CC[C@@H](Nc4ncc(CN5CCCCC5)cn4)CC3)cc(N3CCOCC3)cc2n1` [Compound 495]: the Ki is less than 100 nM.

Take `Clc1cc2nccn2c(N[C@H]2CC[C@@H](Oc3cc(N4CCOCC4)cc4nccnc34)CC2)n1` [Compound 538]: the inhibition constant (Ki) was less than 100 nM.

Turning to `CN(C)C(=O)c1ccnc(N[C@H]2CC[C@@H](Oc3cc(N4CCOCC4)cc4nccnc34)CC2)n1` [Compound 351], the Ki is less than 100 nM.

For `Cc1nccc(N[C@H]2CC[C@@H](Oc3cc(N4CC5CC(C4)O5)cc4nccnc34)CC2)n1` [Compound 353], the Ki was less than 100 nM.

For the compound `Fc1cnc(N[C@H]2CC[C@@H](Oc3cc(N4CCOCC4)cc4nccnc34)CC2)c(F)c1` [Compound 594], the Ki is less than 100 nM.

Consider `c1cnc2c(O[C@H]3CC[C@@H](Nc4ccc(OCCN5CCCCC5)cn4)CC3)cc(N3CCOCC3)cc2n1` [Compound 640], for which the inhibitory constant (Ki) was less than 100 nM.

For the compound `Cc1cnc(C)c(N[C@H]2CC[C@@H](Oc3cc(N4CCOCC4)cc4nccnc34)CC2)c1` [Compound 441], the inhibitory constant (Ki) is less than 100 nM.

For the compound `CN1CCN(Cc2cnc(N[C@H]3CC[C@@H](Oc4cc(N5CCOCC5)cc5nccnc45)CC3)nc2)CC1` [Compound 497], the Ki is less than 100 nM.

On to `c1cc(N[C@H]2CC[C@@H](Oc3cc(N4CCOCC4)cc4nccnc34)CC2)ncn1` [Compound 486], for which the Ki was less than 100 nM.

For `COc1ncnc(N[C@H]2CC[C@@H](Oc3cc(N4CCOCC4)cc4nccnc34)CC2)c1F` [Compound 376], the Ki is less than 100 nM.

On to `Cc1cc(N[C@H]2CC[C@@H](Oc3cc(N4CCOCC4)cc4nccnc34)CC2)n2cnnc2n1` [Compound 500], for which the Ki was less than 100 nM.

As for `CCOc1cnc(N[C@H]2CC[C@@H](Oc3cc(N4CCOCC4)cc4nccnc34)CC2)cn1` [Compound 334], the Ki is less than 100 nM.

As to `COc1cncc(NC[C@H]2CC[C@@H](Oc3cc(N4CCOCC4)cc4nccnc34)CC2)c1` [Compound 347], the Ki is less than 100 nM.

As to `CCOC1CCN(c2cc(N[C@H]3CC[C@@H](Oc4cc(N5CCOCC5)cc5nccnc45)CC3)ncn2)CC1` [Compound 472], the Ki is less than 100 nM.

`Cn1nc(N[C@H]2CC[C@@H](Oc3cc(N4CCOCC4)cc4nccnc34)CC2)c2ccccc21` [Compound 298]: the Ki is less than 100 nM.

For the compound `Cc1cc(N[C@H]2CC[C@@H](Oc3cc(N4CCOCC4)cc4nccnc34)CC2)nn1C` [Compound 326], the Ki is less than 100 nM.

`c1nc(N[C@H]2CC[C@@H](Oc3cc(N4CCOCC4)cc4nccnc34)CC2)cc(OC2CNC2)n1` [Compound 480]: the Ki was less than 100 nM.

Regarding `Cc1nc(C)c(C)c(N[C@H]2CC[C@@H](Oc3cc(N4CCOCC4)cc4nccnc34)CC2)n1` [Compound 436], the Ki was less than 100 nM.

Take `c1cnc2c(O[C@H]3CC[C@@H](Nc4ccc(OCCN5CCOCC5)cn4)CC3)cc(N3CCOCC3)cc2n1` [Compound 639]: the Ki was less than 100 nM.

For the compound `NC1(c2ccc(N[C@H]3CC[C@@H](Oc4cc(N5CCOCC5)cc5nccnc45)CC3)cn2)CC1` [Compound 466], the Ki was less than 100 nM.

On to `c1cc2ncnn2c(N[C@H]2CC[C@@H](Oc3cc(N4CCOCC4)cc4nccnc34)CC2)n1` [Compound 542], for which the Ki is less than 100 nM.

On to `O=Cc1cnc2cc(N3CCOCC3)cc(O[C@H]3CC[C@@H](Nc4ncccn4)CC3)c2n1` [Compound 620], for which the inhibition constant Ki is less than 100 nM.

As for `COc1nccnc1N[C@H]1CC[C@@H](Oc2cc(N3CCOCC3)cc3nccnc23)CC1` [Compound 312], the Ki was less than 100 nM.

With `CN(C)C(=O)c1cc(N[C@H]2CC[C@@H](Oc3cc(N4CCOCC4)cc4nccnc34)CC2)ncn1` [Compound 361], the Ki was less than 100 nM.

On to `COc1cncc(N[C@H]2CC[C@@H](Oc3cc(N4CCOCC4)cc4nccnc34)CC2)c1` [Compound 446], for which the Ki was less than 100 nM.

For `c1cc(N[C@H]2CC[C@@H](Oc3cc(N4CCOCC4)cc4nccnc34)CC2)n2ncnc2c1` [Compound 581], the Ki was less than 100 nM.

Regarding `c1nc(N[C@H]2CC[C@@H](Oc3cc(N4CCOCC4)cc4nccnc34)CC2)c2c(n1)OCC2` [Compound 479], the Ki is less than 100 nM.

With `c1nc2c(c(N[C@H]3CC[C@@H](Oc4cc(N5CCOCC5)cc5nccnc45)CC3)n1)OCC2` [Compound 464], the Ki is less than 100 nM.

As for `CN1CCN(Cc2nccc(N[C@H]3CC[C@@H](Oc4cc(N5CCOCC5)cc5nccnc45)CC3)n2)CC1` [Compound 484], the Ki is less than 100 nM.

For `FC(F)(F)c1ccnc(N[C@H]2CC[C@@H](Oc3cc(N4CCOCC4)cc4nccnc34)CC2)c1` [Compound 589], the Ki is less than 100 nM.

For the compound `Clc1nc(N[C@H]2CC[C@@H](Oc3cc(N4CCOCC4)cc4nccnc34)CC2)nc2cc[nH]c12` [Compound 514], the inhibitory constant (Ki) was less than 100 nM.

In the case of `Cc1nc2c(c(N[C@H]3CC[C@@H](Oc4cc(N5CCOCC5)cc5nccnc45)CC3)n1)OCC2` [Compound 403], the Ki is less than 100 nM.

For `O=C(O)c1cc(N[C@H]2CC[C@@H](Oc3cc(N4CCOCC4)cc4nccnc34)CC2)ncn1` [Compound 653], the Ki is less than 100 nM.

Take `c1cnc2c(O[C@H]3CC[C@@H](Nc4ccc(C5CCC5)nn4)CC3)cc(N3CCOCC3)cc2n1` [Compound 601]: the Ki was less than 100 nM.

In the case of `Cc1nccc(N[C@H]2CC[C@@H](Oc3cc(N4CCOCC4)cc4nonc34)CC2)n1` [Compound 316], the Ki is less than 100 nM.
